Assay results as given in PubChem BioAssay AID248 (DTP/NCI, 2004).
Where “and” joins values, the source holds several entries; their conditions need not be identical. Equal values may be shown once. Inconclusive results and toxic doses are left out. No stated cut-off is given here; in the data, active means T/C of 150% or more; inactive means T/C below 125%.

System: L1210 leukemia ip in BDF1 mice, survival T/C
Assay: NCI In Vivo Anticancer Drug Screen. Data for tumor model L1210 Leukemia (intraperitoneal) in B6D2F1 (BDF1) mice
Details: endpoint: mean survival time, higher = longer survival
In short: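 Read-out is survival time, reported as the treated-group measurement over the vehicle-control measurement.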

[1] = dose: 100.0 mg/kg/injection, schedule: Q01DX001 (ip), vehicle: saline
[2] = dose: 100.0 mg/kg/injection, schedule: Q01DX009 (ip), vehicle: saline with Tween-80
[3] = dose: 200.0 mg/kg/injection, schedule: Q01DX009 (ip), vehicle: saline with Tween-80
[4] = dose: 400.0 mg/kg/injection, schedule: Q01DX009 (ip), vehicle: saline with Tween-80
[5] = dose: 100.0 mg/kg/injection, schedule: Q01DX009 (ip), vehicle: Klucel (hydroxypropylcellulose) (HPC)
[6] = dose: 100.0 mg/kg/injection, schedule: Q04DX003 (ip), vehicle: Klucel (hydroxypropylcellulose) (HPC)
[7] = dose: 200.0 mg/kg/injection, schedule: Q01DX009 (ip), vehicle: Klucel (hydroxypropylcellulose) (HPC)
[8] = dose: 200.0 mg/kg/injection, schedule: Q04DX003 (ip), vehicle: Klucel (hydroxypropylcellulose) (HPC)
[9] = dose: 400.0 mg/kg/injection, schedule: Q04DX003 (ip), vehicle: Klucel (hydroxypropylcellulose) (HPC)
[10] = dose: 100.0 mg/kg/injection, schedule: Q04DX003 (ip), vehicle: saline with Tween-80
[11] = dose: 200.0 mg/kg/injection, schedule: Q04DX003 (ip), vehicle: saline with Tween-80
[12] = dose: 400.0 mg/kg/injection, schedule: Q04DX003 (ip), vehicle: saline with Tween-80
[13] = dose: 50.0 mg/kg/injection, schedule: Q01DX001 (ip), vehicle: carboxymethylcellulose (CMC)
[14] = dose: 100.0 mg/kg/injection, schedule: Q01DX001 (ip), vehicle: carboxymethylcellulose (CMC)
[15] = dose: 200.0 mg/kg/injection, schedule: Q01DX001 (ip), vehicle: carboxymethylcellulose (CMC)
[16] = dose: 400.0 mg/kg/injection, schedule: Q01DX001 (ip), vehicle: carboxymethylcellulose (CMC)
[17] = dose: 50.0 mg/kg/injection, schedule: Q01DX009 (ip), vehicle: saline
[18] = dose: 400.0 mg/kg/injection, schedule: Q01DX009 (ip), vehicle: Klucel (hydroxypropylcellulose) (HPC)
[19] = dose: 200.0 mg/kg/injection, schedule: Q01DX001 (ip), vehicle: saline
[20] = dose: 400.0 mg/kg/injection, schedule: Q01DX001 (ip), vehicle: saline

Measured: T/C

CCC/C=C/CCN1CC1
inactive: dose: 20.0 mg/kg/injection, schedule: Q01DX001 (ip), vehicle: saline 97 % of control | dose: 40.0 mg/kg/injection, schedule: Q01DX001 (ip), vehicle: saline 97 % of control | [1] 86 % of control

O=C(O)c1ccc(NC(=O)c2ccc(F)cc2)cc1
inactive: [2] 94 % of control | [3] 96 % of control | [4] 105 % of control

CSC(N)=NC1CCCCC1
inactive: dose: 6.25 mg/kg/injection, schedule: Q01DX009 (ip), vehicle: saline 103 % of control | dose: 12.5 mg/kg/injection, schedule: Q01DX009 (ip), vehicle: saline 107 % of control | dose: 12.5 mg/kg/injection, schedule: Q04DX002 (ip), vehicle: saline 109 % of control | dose: 25.0 mg/kg/injection, schedule: Q01DX009 (ip), vehicle: saline 100 % of control | dose: 25.0 mg/kg/injection, schedule: Q04DX002 (ip), vehicle: saline 105 % of control

CCN(CCCl)CCCNCc1c2ccccc2c(C)c2ccccc12
inactive: dose: 5.0 mg/kg/injection, schedule: Q01DX005 (ip), vehicle: saline 116 % of control

c1ccc2c3c([nH]c2c1)CCCC3
inactive: [5] 97 % of control | [6] 107 % of control | [7] 113 % of control | [8] 105 % of control | [9] 102 % of control

c1ccc2c(c1)Oc1ccccc1[Te]2
inactive: dose: 100.0 mg/kg/injection, schedule: Q04DX002 (ip), vehicle: saline with Tween-80 100 % of control | dose: 200.0 mg/kg/injection, schedule: Q04DX002 (ip), vehicle: saline with Tween-80 103 % of control | dose: 400.0 mg/kg/injection, schedule: Q04DX002 (ip), vehicle: saline with Tween-80 88 % of control

S=C1SCN(C(c2ccccc2)c2ccccc2)CN1C(c1ccccc1)c1ccccc1
inactive: [10] 95 % of control | [11] 94 % of control | [12] 96 % of control

O=C1c2cc(F)ccc2-c2cccc(F)c21
inactive: [13] 102 % of control | [14] 108 % of control | [15] 104 % of control | [16] 98 % of control

Cc1cc(S(=O)(=O)F)ccc1NC(=O)NCc1ccc([N+](=O)[O-])cc1
inactive: [5] 100 % of control | [7] 106 % of control

CN1CSCSC1
inactive: [17] 104 % of control | dose: 100.0 mg/kg/injection, schedule: Q01DX009 (ip), vehicle: saline 98 % of control | [10] 101 % of control | [11] 100 % of control | [12] 97 % of control

CCNCCCOCC
inactive: [17] 91 % of control | dose: 100.0 mg/kg/injection, schedule: Q04DX003 (ip), vehicle: saline 103 % of control | dose: 200.0 mg/kg/injection, schedule: Q04DX003 (ip), vehicle: saline 95 % of control

Cc1ccc(C)c([N+](=O)[O-])c1C(=O)O
inactive: [14] 104 % of control | [15] 96 % of control | [16] 109 % of control

C=CCSC(=S)OCC
inactive: dose: 25.0 mg/kg/injection, schedule: Q01DX009 (ip), vehicle: saline with Tween-80 88 % of control | dose: 50.0 mg/kg/injection, schedule: Q01DX009 (ip), vehicle: saline with Tween-80 104 % of control | [2] 109 % of control

Cc1ccc(C)c(NC(=O)NC(C)C)c1
inactive: [5] 94 % of control | [6] 96 % of control | [7] 94 % of control | [8] 91 % of control | [18] 91 % of control | [9] 89 % of control

C/C(Cc1ccccc1)=N\O
inactive: dose: 59.0 mg/kg/injection, schedule: Q01DX009 (ip), vehicle: saline with Tween-80 107 % of control | [2] 104 % of control | dose: 118.0 mg/kg/injection, schedule: Q01DX009 (ip), vehicle: saline with Tween-80 109 % of control | dose: 236.0 mg/kg/injection, schedule: Q01DX009 (ip), vehicle: saline with Tween-80 103 % of control | [4] 97 % of control

CCCNP(=O)(NCCC)OC1CC(C)(C)N(O)C(C)(C)C1
inactive: dose: 100.0 mg/kg/injection, schedule: Q04DX002 (ip), vehicle: water 90 % of control | dose: 200.0 mg/kg/injection, schedule: Q04DX002 (ip), vehicle: water 87 % of control | dose: 400.0 mg/kg/injection, schedule: Q04DX002 (ip), vehicle: water 97 % of control

NC(=O)n1cccn1
inactive: dose: 25.0 mg/kg/injection, schedule: Q01DX Z (ip), vehicle: carboxymethylcellulose (CMC) 100 % of control | dose: 50.0 mg/kg/injection, schedule: Q01DX Z (ip), vehicle: carboxymethylcellulose (CMC) 102 % of control | dose: 100.0 mg/kg/injection, schedule: Q01DX Z (ip), vehicle: carboxymethylcellulose (CMC) 102 % of control | dose: 200.0 mg/kg/injection, schedule: Q01DX Z (ip), vehicle: carboxymethylcellulose (CMC) 100 % of control and 109 % of control | dose: 400.0 mg/kg/injection, schedule: Q01DX Z (ip), vehicle: carboxymethylcellulose (CMC) 102 % of control

CC1CN(C=O)CCN1C=O (centres undefined)
inactive: [1] 98 % of control | [19] 98 % of control | [20] 101 % of control

COc1cccc(CCNC(=O)CCN2C(=O)c3ccccc3C2=O)c1
inactive: [13] 94 % of control | [14] 96 % of control | [15] 100 % of control | [16] 100 % of control

O=C1c2cccc3cccc(c23)C(=O)N1Cc1ccco1
inactive: [5] 94 % of control | [7] 89 % of control | [18] 93 % of control

c1ccc(C2C(c3ccccc3)N2c2ccccc2)cc1 (centres undefined)
inactive: [13] 105 % of control | [14] 113 % of control | [6] 92 % of control | [10] 97 % of control | [15] 113 % of control | [8] 94 % of control | [11] 90 % of control | [16] 103 % of control | [9] 92 % of control | [12] 87 % of control

N=c1c2[nH]cnc2ncn1O
inactive: [14] 89 % of control | [15] 94 % of control | [16] 100 % of control

CC(=O)C(C)C(C)(C)C (centres undefined)
inactive: [1] 106 % of control | [19] 92 % of control | [20] 97 % of control

CCOC(=O)c1c(Cl)cc(C)nc1C
inactive: [10] 93 % of control | [11] 101 % of control | [12] 95 % of control

CCOC(=S)c1ccc(S(=O)(=O)NC)cc1
inactive: dose: 100.0 mg/kg/injection, schedule: Q01DX001 (ip), vehicle: Klucel (hydroxypropylcellulose) (HPC) 109 % of control | dose: 200.0 mg/kg/injection, schedule: Q01DX001 (ip), vehicle: Klucel (hydroxypropylcellulose) (HPC) 100 % of control | dose: 400.0 mg/kg/injection, schedule: Q01DX001 (ip), vehicle: Klucel (hydroxypropylcellulose) (HPC) 110 % of control

O=[N+]([O-])c1ccc(N=Nc2ccccc2)cc1
inactive: [2] 109 % of control | [3] 104 % of control | [4] 105 % of control

CN(C)c1ccc(C(O)C(N)=O)cc1 (centres undefined)
inactive: dose: 6.25 mg/kg/injection, schedule: Q01DX001 (ip), vehicle: saline 103 % of control | dose: 12.5 mg/kg/injection, schedule: Q01DX001 (ip), vehicle: saline 94 % of control | dose: 25.0 mg/kg/injection, schedule: Q01DX001 (ip), vehicle: saline 97 % of control

O=c1[nH]c(=O)n(CCCc2ccccc2)cc1-c1ccccc1
inactive: [16] 90 % of control

COc1ccc(/C=C2\CCC3C4(CCCC3(C)C2=O)OCCO4)cc1 (centres undefined)
inactive: dose: 200.0 mg/kg/injection, schedule: Q01DX009 (ip), vehicle: saline 92 % of control | dose: 400.0 mg/kg/injection, schedule: Q01DX009 (ip), vehicle: saline 101 % of control

O=C(SCC(NSc1ccccc1[N+](=O)[O-])C(=O)O)c1ccccc1 (centres undefined)
inactive: dose: 12.0 mg/kg/injection, schedule: Q04DX003 (ip), vehicle: Klucel (hydroxypropylcellulose) (HPC) 90 % of control | dose: 25.0 mg/kg/injection, schedule: Q01DX009 (ip), vehicle: Klucel (hydroxypropylcellulose) (HPC) 95 % of control | dose: 25.0 mg/kg/injection, schedule: Q04DX003 (ip), vehicle: Klucel (hydroxypropylcellulose) (HPC) 95 % of control | dose: 50.0 mg/kg/injection, schedule: Q01DX009 (ip), vehicle: Klucel (hydroxypropylcellulose) (HPC) 98 % of control | dose: 50.0 mg/kg/injection, schedule: Q04DX003 (ip), vehicle: Klucel (hydroxypropylcellulose) (HPC) 95 % of control | [5] 98 % of control
